Where a SMILES comes first, the peptide text is derived from it. [ ]: non-standard residue; d: D form. Aoe = N[C@@H](CCCCCC(=O)[C@@H]1CO1)C(=O)O; d = 2'-deoxy (DNA); m = 2'-O-methyl
How the values were obtained:
HDAC-1 protein = assay: Western blotting analysis of HDAC-1 protein expression in transfected T24 cells; format: cell-based, human; conditions: FIG. 4; second generation oligonucleotides, T24 cells transfected twice with 50 nM, lysates 24 h after second transfection
Experimental: (§1) To do this, T24 cells were transfected with oligonucleotide using lipofectin as described above. Twenty-four hours later, the cells were lysed according to standard procedures. The whole cell extracts (50 μg) were resolved on 7-15% gradient SDS/PAGE, transferred to PVDF membrane (Amersham, Arlington Heights, Ill.), and subjected to Western blotting analysis with rabbit polyclonal HDAC1- and HDAC-2 specific antibodies (1:500, Santa Cruz Biotech., Santa Cruz, Calif.) were used. Detection was accomplished with a secondary anti-rabbit IgG-HR peroxidase antibody and an enhanced chemiluminescence detection kit (Amersham) accordingly to manufacturer's instructions.
T24 cells were transfected twice as described above with 50 nM oligonucleotide. Cell lysates were prepared twenty-four hours following the second transfection, resolved on 7-15% gradient SDS-PAGE, and transferred to PVDF membrane. The PVDF membrane blot was first blotted with anti-HDAC-1 antibody. Following detection with horseradish peroxidase-labelled secondary antibody and enhanced chemiluminescence, the blot was stripped, and re-probed with anti-HDAC-2 antibody. Following detection, the blot was stripped for a second time and re-probed with an actin-specific antibody to verify equal protein loading in the lanes.

HDAC-2 protein = assay: Western blotting analysis of HDAC-2 protein expression in transfected T24 cells; format: cell-based, human; conditions: FIG. 3; 50 nM second generation oligonucleotide, T24 cells transfected twice, 48 hours after the first transfection
Experimental: as §1
Twenty-four hours later, the cells were transfected a second time with the same amount of the same oligonucleotide. Twenty-four hours after this (i.e., 48 hours after the first transfection), cellular proteins were prepared, resolved on 7-15% gradient SDS-PAGE, and subjected to Western blotting analysis as described in Example 1 with rabbit polyclonal HDAC2 specific antibody (1:500, Santa Cruz Biotech). Following blotting with the secondary anti-rabbit IgG-HR peroxidase antibody and visualization with the enhanced chemiluminescence detection kit (Amersham), the blot was stripped and re-probed with an antibody specific to actin to verify equal loading of all wells (data not shown). […]

[1] = system: cell cycle progression in cells; conditions: literature reports; cited from earlier work
histone deacetylase = conditions: Yoshida et al.; cited from earlier work

Molecule	cell cycle progression [1]	further results
5′-CAAUCGTCAGAGACTCCGAA-3′ (antisense CAAUCGTCAGAGACTCCGAA; sugars from the 5' end m4 d12 m4, backbone and methylation of C not given here) [MG2609, mismatch control oligonucleotide of HDAC-1 (MG2608)]	–	inhibition of HDAC-1 protein expression (HDAC-1 protein): failed to inhibit
5′-CUCCTTGACTGTACGCCAUG-3′ [MG2636]	–	inhibition of HDAC-2 protein expression (HDAC-2 protein): able to inhibit HDAC-2 protein expression
C/C=C1\NC(=O)[C@H]2CSSCC/C=C/[C@H](CC(=O)N[C@H](C(C)C)C(=O)N2)OC(=O)[C@H](C(C)C)NC1=O [FR901228]	inhibit cell cycle progression in cells	–
CC(/C=C/C(=O)NO)=C\[C@@H](C)C(=O)c1ccc(N(C)C)cc1 [Trichostatin A]	arrest cell cycle progression in cells in the G1 and G2 phases	inhibition of histone deacetylase activity (histone deacetylase): inhibit histone deacetylase activity
O=C(CCCCCCC(=O)Nc1ccccc1)NO [suberoylanilide hydroxamic acid]	inhibit cell cycle progression in cells	–
O=C1N[C@@H](Cc2ccccc2)C(=O)N2CCC[C@@H]2C(=O)N[C@@H](CCCCCC(=O)[C@@H]2CO2)C(=O)N[C@H]1Cc1ccccc1 [trapoxin] (cyclo(FF[dP][Aoe]))	inhibit cell cycle progression in cells	–
CC(/C=C/C(=O)NO[C@@H]1O[C@H](CO)[C@@H](O)[C@H](O)[C@H]1O)=C\[C@@H](C)C(=O)c1ccc(N(C)C)cc1 [trichostatin C]	inhibit cell cycle progression in cells	–
depudecin	inhibit cell cycle progression in cells	–

— patent US20070105808A1, “Inhibition of histone deacetylase” (MethylGene, Inc., priority 1999, published 2007)
